Read-outs that look alike come from different tables or passages of the source.
Tests used:
[1] = in vivo
[2] = test system: Madin-Darby canine kidney (MDCK) cells; settings: Shayman et al. 1991; cited from earlier work
[3] = test system: streptozotocin-induced diabetic male rats; experiment: PDMP treatment of streptozotocin diabetic rats (renal hypertrophy); format: in vivo, rat
Protocol: (§1) Because there is gender specific expression of renal GSLs, only male rats were used. Shukla, A. et al., am. J. Physiol. 262: F24-F29 (1992). Male rats were fed a standard pellet laboratory chow and were provided with water ad libitum. Diabetes was induced by the administration of streptozotocin (80 mg/kg i.p.) dissolved in 10 mM Na citrate, pH 5.5. Controls were injected with buffer alone. Animals were provided with immediate access to food. Blood was obtained from the tail vein and blood glucose levels were determined with a Beckman glucose analyzer 48 h following the injection and at the time of organ resection. […] Therefore only animals with blood glucose concentrations between 13.5 and 32 mM were utilized. At the end of the experimental period, the animals were weighted, anesthetized with ether, and their kidneys removed and weighed. For UDP-Glc measurements, the kidneys were frozen in liquid nitrogen immediately following removal.
(§2) The GlcCer synthase inhibitor PDMP was administered as the DL-hydrochlorideto both diabetic and control animals 14 days following the induction of diabetes with streptozotocin (see Table IV results). […] See Shukla, A. et al., J. Lipid. Res. 32:713-722 (1991). The piperonyl butoxide was prepared by dissolution in corn oil at a concentration of 150 mg/ml oil. The butoxide solution was administered intraperitoneally prior to injection of PDMP. On the first day of treatment this was given 4 h before PDMP treatment; on days 2 to 4 of treatment it was administered just prior to the PDMP injection. PDMP was prepared as an emulsion with the detergent Myrj 52 in normal saline, buffered with sodium acetate. The final concentrations of PDMP, Myrj 52 and sodium acetate in mg/ml were 6, 12, and 8 respectively. The PDMP was given intraperitoneally as a dose of 100 mg/kg body weight.
(§3) Glomerular volumes were measured on paraffin sections of kidney fixed in formalin and stained with periodic acid Schiff reagent. The measurements required the determination of the mean glomerular random cross sectional area (A(G)). Glomerular areas were measured using a Javelin Chromachip camera (Javelin Electronics, Torrance, Calif.) attached to an Olympus BH-2 microscope interfaced with a Macintosh II computer containing an Image Capture 2 frame grabber (Scion Corp., Walkerville, Md.) and image 1.38B14 software (NIH Public Software, Bethesda, Md.). Glomerular volumes were derived by the method described in Weibel "Stereological Methods. Practical Methods for Biological Morphometry," (academic Press, London) p. 44-45 (1979) as applied by Hirose, K. et al., Kidney Int. 21:689-695 (1982).
(§4) To determine whether the increase in glucolipid formation in diabetes was functionally important, the following experiment was performed. One group of animals was made diabetic with streptozotocin, and the other group received vehicle alone. After two weeks, the control and diabetic groups were divided according to the weights of the rats. Half of the non-diabetic and half of the diabetic animals received DL-threo-PDMP, which is the racemic mixture of the compound of the Formula I where n is 8. The control non-diabetic and diabetic groups were pair fed and received vehicle alone. After 4 days of treatment the animals were weighed and sacrificed. In Table V, the data are expressed as the mean ± S.D. All animals received the cytochrome P450 inhibitor piperonyl butoxide (600 mg/kg) intraperitoneally. Treated control and diabetic animals received DL-threo-PDMP.

[4] = test system: non-diabetic control male rats; experiment: PDMP treatment of non-diabetic control rats; format: in vivo, rat
Protocol: as §1, §2, §3, §4

[5] = 100 mg/kg, cited from earlier work
[6] = Diabetic + PDMP, n=7, DL-threo-PDMP 100 mg/kg i.p. 4 days with piperonyl butoxide, mean ± S.D.
[7] = Control + PDMP, n=11, DL-threo-PDMP 100 mg/kg i.p. 4 days with piperonyl butoxide, mean ± S.D.

SMILES	effect on renal growth or function [1]	endogenous glycosphingolipid content [2]	kidney weights of PDMP-treated diabetic animals compared with untreated diabetic animals ([3]; 4 days of treatment, animals hyperglycemic)	Body Weight ([3]; Diabetic + PDMP, n=7, DL-threo-PDMP 100 mg/kg i.p. 4 days from 14 days after streptozotocin, with piperonyl butoxide 600 mg/kg i.p., mean ± S.D.)	BUN [3, 6]	Kidney Weight [3, 6]	glomerular volumes compared with control groups ([3]; morphometric analysis, five kidneys per group, diabetic animals treated with PDMP)	renal histology (drug-induced toxicity) ([3]; periodic acid Schiff stained kidney sections: acute tubular necrosis, acute or chronic inflammation, glomerular pathology)	Creatinine ([3]; serum, Diabetic + PDMP, n=7, DL-threo-PDMP 100 mg/kg i.p. 4 days with piperonyl butoxide, mean ± S.D.)	Body Weight ([4]; Control + PDMP, n=11, DL-threo-PDMP 100 mg/kg i.p. 4 days with piperonyl butoxide 600 mg/kg i.p., mean ± S.D.)	BUN [4, 7]	Kidney Weight [4, 7]	glomerular size ([4]; morphometric analysis, five kidneys per group, non-diabetic rats)	Creatinine ([4]; serum, Control + PDMP, n=11, DL-threo-PDMP 100 mg/kg i.p. 4 days with piperonyl butoxide, mean ± S.D.)	half life of PDMP ([5]; animals exposed to the mixed function oxidase inhibitor PB)	half life of PDMP ([5]; without piperonyl butoxide (PB))
CCCCOCCOCCOCc1cc2c(cc1CCC)OCO2 [PB, piperonyl butoxide]	no effect															
OC1C(O)C(O)C2OC2C1O (centres unmarked) [conduritol B epoxide, reference compound]		increased														
CCCCCCCCCC(=O)N[C@H](CN1CCOCC1)[C@H](O)c1ccccc1 (relative stereo) [PDMP, 1-phenyl-2-decanoylamino-3-morpholino-1-propanol]		decreased	significantly lower	200 ± 11 g	28 ± 6.4 mg/dL	2.32 ± 0.19 g	not significantly different	no evidence of acute tubular necrosis, acute or chronic inflammation, or glomerular pathology	0.23 ± 0.05	238 ± 21 g	13 ± 3.2 mg/dL	2.25 ± 0.27 g	no effect	0.31 ± 0.09	4 h	1 h

Reference: patent publication US5302609A, “Treatment of diabetic nephropathy” (The Regents of the University of Michigan, priority 1992, dated 1994)
